The nature of data set [1]: Tissue carotenoids by HPLC in 5×FAD mice. As to conditions: for Amount in brain tissues: 5×FAD mice fed Dunaliella algae diet vs regular diet, HPLC; for Accumulation in liver, fat and brain tissues: 5×FAD study, Dunaliella diet group vs control group.
For data set [2], the system named is blood brain barrier (BBB) in-vitro model (endothelial cells / glial cells). The data set is described as follows: In vitro blood brain barrier (BBB) cell culture model, HPLC of carotenoids. The data set is classed as in vitro ADME, porcine brain endothelial cells, new born rat glial cells. As for the experimental part:
FIG. 5A-FIG. 5C: Schematic drawings of the in vitro blood brain barrier (BBB) cell culture system. The model consists of a monolayer of endothelial cells, forming tight junctions that are grown on a microporous membrane filter culture insert (luminal side) and glial cells seeded at the abluminal side of the filter. Low Density Lipoprotein (LDL, 100 μl 1,600 μg/ml) from a healthy volunteer is added to the luminal side. Cells are incubated for 24 hours and then samples are collected from the luminal and abluminal side and analyzed.
An in vitro model of the blood brain barrier (BBB) was used. The model consists of a monolayer of endothelial cells, obtained from primary cultures of endothelial cells established from freshly collected porcine brain forming tight junctions that are grown on a microporous membrane filter culture insert (the “Luminal side” in FIG. 6) and of a monolayer of glial cells extracted from new born rats' cortex that are seeded at the abluminal side of the filter (the “Abluminal side” in FIG. 6). Low density lipoprotein (LDL, 100 μl, 1,600 μg/ml from a healthy volunteer) was added to the luminal side. Cells were then incubated for 24 hours and thereafter samples were collected and analyzed using HPLC. The model was prepared by first seeding the glial cells on the abluminal side of a filter, a week later, the above-described endothelial cells were seeded on the luminal side of the filter and two days later LDL was added to the luminal side of the filter as indicated above.
LDL was obtained from healthy volunteers by sequential ultracentrifugation (density, 1.063 g/ml), and the concentration was determined by the Lowry method.
Using the “BBB in-vitro model” described above and schematically shown in FIG. 5A, 5B, 5C, glial and endothelial cells were incubated for 24 hours in the presence of LDL (inherently containing all-trans and 9-cis β-carotene) and then samples were collected and carotenoids were extracted and analyzed using HPLC.

A short description of data set [3]: Tissue carotenoids by HPLC in Tg2576 mice. The data set is classed as in vivo. As to conditions: Tg2576 study, mice fed Dunaliella diet vs control diet. The text has this: In order to assess whether carotenoid level was higher in brain tissue of Tg2576 mice fed with the Dunaliella diet as compared to the control group, mice brain carotenoids were extracted and then measured using HPLC.

Where [4] appears, read: carotenoids in human LDL added to luminal side, 24 hours incubation, HPLC.

The structures appear in SMILES notation. Read-outs that look alike come from different tables or passages of the source.

Regarding `CC1=C(/C=C/C(C)=C\C=C\C(C)=C\C=C\C=C(C)\C=C\C=C(C)\C=C\C2=C(C)CCCC2(C)C)C(C)(C)CCC1` [9-cis β Carotene, 9-cis β-carotene], in data set [1], the “Amount in brain tissues” value is on record as “significantly higher amounts”; the “Accumulation in liver, fat and brain tissues” value was “much higher levels”. Further, the “Crossing of the BBB (luminal to abluminal side)” value (“Crossing of the BBB” below) in data set [2] (setting [4]) is “crossed the BBB”. Moreover, the “Tissue levels (liver, fat, brain)” value in data set [3] is recorded as “much higher levels”.
In the case of `CC1=C(/C=C/C(C)=C/C=C/C(C)=C/C=C/C=C(C)/C=C/C=C(C)/C=C/C2=C(C)CCCC2(C)C)C(C)(C)CCC1` [all-trans β Carotene, all-trans β-carotene], in data set [1], the “Amount in brain tissues” value was “significantly higher amounts”; the “Accumulation in liver, fat and brain tissues” value is reported as “much higher levels”. In addition, in data set [2] (setting [4]), the “Crossing of the BBB” value is “crossed the BBB”. Also, in data set [3], the “Tissue levels (liver, fat, brain)” value is “much higher levels”.
`CC(C)=CCC/C(C)=C/C=C/C(C)=C/C=C/C(C)=C/C=C/C=C(C)/C=C/C=C(C)/C=C/C=C(\C)CCC=C(C)C` [lycopene, reference compound]: the “Crossing of the BBB” value in data set [2] is “did not cross the BBB”.
